This is an account of results in patent US7012128B2, “Interaction between cyclin D1 and steroid receptor co-activators and uses thereof in assays” (TopoTarget UK Limited, priority 1998, dated 2006).

Test [1] has as its target T1, ER (Homo sapiens, UniProt P03372).
T1 sequence (P03372 1-595): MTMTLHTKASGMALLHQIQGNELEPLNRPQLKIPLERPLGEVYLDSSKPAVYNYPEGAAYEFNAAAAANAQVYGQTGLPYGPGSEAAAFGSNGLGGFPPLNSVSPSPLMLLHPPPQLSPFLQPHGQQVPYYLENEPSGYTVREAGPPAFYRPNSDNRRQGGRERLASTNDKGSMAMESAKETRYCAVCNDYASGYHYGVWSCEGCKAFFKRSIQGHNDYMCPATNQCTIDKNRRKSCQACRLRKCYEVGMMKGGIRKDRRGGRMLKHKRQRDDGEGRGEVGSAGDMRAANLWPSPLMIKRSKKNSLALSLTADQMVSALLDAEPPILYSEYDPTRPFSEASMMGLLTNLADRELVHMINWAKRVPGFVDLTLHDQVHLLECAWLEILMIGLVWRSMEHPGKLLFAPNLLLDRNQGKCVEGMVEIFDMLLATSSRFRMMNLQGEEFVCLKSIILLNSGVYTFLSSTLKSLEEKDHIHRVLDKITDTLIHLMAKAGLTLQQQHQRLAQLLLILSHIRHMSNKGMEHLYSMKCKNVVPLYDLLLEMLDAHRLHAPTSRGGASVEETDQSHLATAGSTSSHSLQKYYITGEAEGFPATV
The experiment in a line: ER activation, ERE-reporter gene, in MCF-7 cells. It is filed as cell-based. More on the design: T47D and MCF-7, which contain endogenous wild type ER; endogenous in cells; host or cells: MCF-7; T47D. Conditions: MCF-7, relative high levels of cyclin D1; 17β-estradiol enriched medium. An excerpt: (§1) The ER-containing T47D and MCF-7 breast cancer cells were maintained in 17β-estradiol enriched medium with 10%fetal calf serum after cotransfection with a cyclin D1 L254/255A mutant expression vector and an ERE-reporter gene for testing its effect on ER activation (left panel). ER transactivation in the absence of co-expression of the cyclin D1 mutant was set at 100%.
(§2) To get more insight in the role of cyclin D1 in ER transactivation in breast cancers with elevated levels of cyclin D1, we have tested the effect of the mutant cyclin D1 L254/255A on ER activation in two different breast cancer cell lines. This cyclin D1 mutant does bind to ER, but fails both to interact with SRC-1 as shown above and consequently fails to activate ER (FIG. 1B). Therefore, this mutant can act as a dominant negative in cyclin D1-mediated ER transactivation as it binds to ER and fails to recruit coactivators. We tested the effect of this cyclin D1 mutant on ER activation in two breast cancer cell lines, T47D and MCF-7, which contain endogenous wild type ER, but differ in their cyclin D1 protein levels (FIG. 6). […] In contrast, in MCF-7, which contain relative high levels of cyclin D1 (FIG. 6), the cyclin D1 mutant inhibited up to 50% of ER activity. Thus, this dominant negative cyclin D1 mutant preferentially interferes with ER activation in breast cancer cells that have high levels of cyclin D1 protein.

The next test has as its system pRb. Briefly: Phosphorylation of pRb in Rb-/- 3T3 cells. The settings on record: cells that lack cyclin D1-associated kinase activity, low serum. It is filed as cell-based. An excerpt:
COS-7 cells were cotransfected with HA-tagged constructs encoding the nuclear receptor coactivators SRC-1, AIB-1 or p300 (Anzick et al., 1997; Chakravarti et al., 1996; Hanstein et al., 1996; Kamei et al., 1996; Onate et al., 1995) together with control plasmid, plasmids directing the synthesis of wild type cyclin D1 or D1 L254/255A mutant (D1-LALA). 12CA5 HA antibodies were used for immunoprecipitation of whole cell extracts prepared from these cells and co-immunoprecipitation of cyclin D1 (mutants) was examined by Western blot analysis using anti-cyclin D1 antibody. […] Precipitation with the anti-cyclin D1 antibody from the total lysate of the cells transfected with cyclin D1 and cyclin D1-LALA was similar. Binding of cyclin D1 and cyclin D1 L254/255A mutant to ER was then investigated. COS-7 cells were transfected with ER expression vector, cyclin D1 (mutant) and/or control plasmids. Monoclonal ER antibodies were used for immunoprecipitation of ER of whole cell extracts prepared from these cells and co-immunoprecipitation of cyclin D1 (mutant) was examined by Western blot analysis using monoclonal cyclin D1 antibodies. […] The activity of cyclin D1 and D1 L254/255A mutant in phosphorylation of pRb in Rb^−/− 3T3 cells was also investigated. […] Differentially phosphorylated species of pRb were detected by Western blotting using the polyclonal pRb antibody (C15, Santa Cruz).

In test [2] the test system is MCF-7 breast cancer cells. Briefly: Cell cycle profiles by FACS after transient transfection. It counts as cell-based. The settings on record: transient transfection of MCF-7. As to the method: Cell cycle profiles were analysed using fluuorescence activated cell sorting (FACS)(Allen, 1990; Baldetorp et al, 1998).
In test [3] the test system is SRC family proteins (SRC-1, AIB-1). Briefly: Co-immunoprecipitation with HA-tagged coactivators from COS-7 cells. It counts as binding. The settings on record: absence of 17β-estradiol. An excerpt: COS-7 cells were cotransfected with HA-tagged constructs encoding the nuclear receptor coactivators SRC-1, AIB-1 or p300 (Anzick et al., 1997; Chakravarti et al., 1996; Hanstein et al., 1996; Kamei et al., 1996; Onate et al., 1995) together with control plasmid, plasmids directing the synthesis of wild type cyclin D1 or D1 L254/255A mutant (D1-LALA). 12CA5 HA antibodies were used for immunoprecipitation of whole cell extracts prepared from these cells and co-immunoprecipitation of cyclin D1 (mutants) was examined by Western blot analysis using anti-cyclin D1 antibody. […] Precipitation with the anti-cyclin D1 antibody from the total lysate of the cells transfected with cyclin D1 and cyclin D1-LALA was similar. Binding of cyclin D1 and cyclin D1 L254/255A mutant to ER was then investigated. COS-7 cells were transfected with ER expression vector, cyclin D1 (mutant) and/or control plasmids. […] Differentially phosphorylated species of pRb were detected by Western blotting using the polyclonal pRb antibody (C15, Santa Cruz).
Cells were lysed in ELB containing 250 mM NaCl, 0.1% NP-40, 50 mM HEPES pH 7.0, 5 mM EDTA and protease inhibitors. […] After blocking with PBS containing 5% milk and 0.1% Tween-20, proteins were detected with monoclonal antibodies directed against cyclin D1 (DCS-6, Neomarkers) and peroxidase-conjugated goat anti-mouse IgG. […]

Test [4] concerns the target T1, ER. Briefly: ER activation, ERE-reporter gene, in T47D cells. It is filed as cell-based. More on the design: T47D and MCF-7, which contain endogenous wild type ER; endogenous in cells; host or cells: MCF-7; T47D. The settings on record: relative low levels of cyclin D1, 17β-estradiol enriched medium.
Description: as §1, §2

“Cyclin D1-LALA: cyclin D1 mutant in which leucines 254 and 255 were mutated to alanines; dominant negative”: the “inhibition of ER activity” value in the test with ER [1] is listed as “up to 50%”. Moreover, the “ability to phosphorylate pRb” value with pRb is on record as “unaffected”. The “effect on cell cycle” value in test [2] is reported as “arrest in the cell cycle at the G1/S checkpoint”. Besides, in test [2] (FACS), the “Phase of cell cycle G0/G1” value stood at 81.9%, the “Phase of cell cycle G2/M” value is on record as 7.9% and the “Phase of cell cycle S” value amounted to 10.2%. Besides, in test [3], the “interaction with SRC family proteins” value was “did not interact”. For the same substance, in the test with ER [4], the “inhibition of ER activity” value is “slight inhibition”.
